# Measurements published in US20230151432A1, “KIF18A INHIBITORS FOR TREATMENT OF NEOPLASTIC DISEASES” (AMGEN INC., priority 2020, published 2023).
# Like-named read-outs stand apart in the source and are kept apart here.
# Assays:
# CAL-51 TNBC cells = experiment: Centrosome immunofluorescence imaging and cl-PARP Western blotting (Example 6); type: cell-based, human; conditions: 0.5 μM; 24 h imaging, 48 h Western; TP53 wild-type
# Protocol: (§1) To analyze the effects of a KIF18A inhibitor on mitotic centrosome/chromosome features and apoptosis of cancer cells, centrosome features in CAL-51 and MDA-MB-157 TNBC cells were analyzed by an immunofluorescence imaging analysis. Cells were seeded into Cell Carrier Ultra 96-well Polystyrene plate (PerkinElmer) in 200 μL of complete media and grown. […] Cells were washed twice with 200 μL Wash Buffer (1×PBS/0.5% BSA, Rockland Immunochemicals). Cells are stained with 100 μL anti-CETN3 mouse antibody (1:2000, H00001070-M01, Abnova) and anti-pericentrin rabbit antibody (1:2000, ab4448-100, Abcam) in 200 μL of Wash Buffer and incubated overnight at 4° C. Cells were washed twice with 200 μL Wash Buffer. Cells were stained with 100 μL secondary antibodies [goat anti-mouse IgG-alexa-488 (1:1000, A1 1029, Invitrogen) and goat anti-rabbit IgG-alexa-647 (1:1000, A21244, Invitrogen) in Wash Buffer for 2 hours at room temperature protected for light. Cells were washed twice followed by addition of 100 μL Wash Buffer containing Hoechst 33342 DNA dye (2 μg/mL). Cells were imaged on a PerkinElmer Ultraview Vox dual spinning disc confocal microscope using a 60× oil immersion objective with laser excitation wavelengths of 405 nm (Hoechst), 488 nm (alexa-488), and 647 nm (alexa-647). Representative maximal projection images were collected for mitotic objects from each treatment well. […]
# MDA-MB-157 TNBC cells [1] = experiment: as above; type: cell-based, human; conditions: 0.5 μM; 24 h imaging, 48 h Western; TP53 mutant, CCNE1 amplified
# Protocol: as §1
# MDA-MB-157 TNBC cells [2] = experiment: Imaging-based Centrosome Count Assay (CCA); type: cell-based; conditions: Homo sapiens, 24 hours of treatment
# Protocol: To analyze the effects of a KIF18A inhibitor on the mitotic phenotype of cancer cells, an imaging-based Centrosome Count Assay (CCA) carried out using a KIF18A inhibitor was carried out. In preparation for plating, MDA-MB-157 TNBC cells were resuspended seven times through a 10 mL syringe with 18-G needle to create a single-cell suspension. Cells were seeded at a density of 30 000 cells per well using the BRAVO Automated Liquid Handling Platform (Agilent Technologies, Santa Clara, Calif.) into Corning 96-well Flat Clear Bottom Black Polystyrene plate (Corning, N.Y.) in 100 μL of complete media and grown for 24 hours. […] Imaging data was acquired on Cellomics ArrayScan VTI HCS Reader (SN03090745F, ThermoFisher Scientific) using the SpotDetector.V4 Assay protocol (Ver 6.6.0 (Build 8153) with a 20×objective, experiment #1 collected 100-fields per well; experiment #2 collected 67-fields per well). […] The percentage of mitotic objects with >2 pericentrin spots (proxy for centrosome number) was determined for each well. […] This represents the total valid p-Histone H3 positive mitotic object count based on the set fluorescence intensity threshold using alexa-647 (channel 3). • (3) % Selected Object pHH3. […]
Structure (SMILES),mitotic cell centrosome features and apoptosis (CAL-51 TNBC cells),mitotic cell centrosome features and apoptosis (MDA-MB-157 TNBC cells [1]),"EC50 (MDA-MB-157 TNBC cells [2]; read-out: EC50, increase in p-Histone H3 positive cells)","EC50 (MDA-MB-157 TNBC cells [2]; read-out: EC50, pericentrin spotting (>2 spots per mitotic object))"
"CC(C)(CO)Nc1ccc(C(=O)Nc2cccc(S(=O)(=O)C3CCCC3)c2)c(N2CCC3(CC2)CC3)n1 [Compound C11, N-(3-(cyclopentylsulfonyl)phenyl)-6-((1-hydroxy-2-methylpropan-2-yl)amino)-2-(6-azaspiro[2.5]octan-6-yl)nicotinamide]",no changes in centrosome features or apoptosis,selectively induced alterations in mitotic cell centrosome features,–,–
"Cc1cc(NC(=O)c2ccc(NS(=O)(=O)CCO)cc2N2CCC3(CC2)CC3)nc(N2CCC(F)(F)CC2)n1 [Compound C14, N-(2-(4,4-Difluoropiperidin-1-yl)-6-methylpyrimidin-4-yl)-4-((2-hydroxyethyl)sulfonamido)-2-(6-azaspiro[2.5]octan-6-yl)benzamide]",–,–,0.0794 µM,0.0522 µM
